Tests used:
[1] = biological target: Delta-type opioid receptor (Homo sapiens, UniProt P41143); assay: Agonist activity at human DOR expressed in CHOK1 cells assessed as inhibition of forskolin-stimulated cAMP accumulation incubated for 30 mins by luminescence assay; format: functional, cell-based, CHO-K1
[2] = biological target: T1, Mu-type opioid receptor (Homo sapiens, UniProt P35372); assay: Agonist activity at human MOR expressed in CHOK1 cells assessed as inhibition of forskolin-stimulated cAMP accumulation incubated for 30 mins by luminescence assay; format: functional, cell-based, CHO-K1
T1 sequence (P35372 whole entry): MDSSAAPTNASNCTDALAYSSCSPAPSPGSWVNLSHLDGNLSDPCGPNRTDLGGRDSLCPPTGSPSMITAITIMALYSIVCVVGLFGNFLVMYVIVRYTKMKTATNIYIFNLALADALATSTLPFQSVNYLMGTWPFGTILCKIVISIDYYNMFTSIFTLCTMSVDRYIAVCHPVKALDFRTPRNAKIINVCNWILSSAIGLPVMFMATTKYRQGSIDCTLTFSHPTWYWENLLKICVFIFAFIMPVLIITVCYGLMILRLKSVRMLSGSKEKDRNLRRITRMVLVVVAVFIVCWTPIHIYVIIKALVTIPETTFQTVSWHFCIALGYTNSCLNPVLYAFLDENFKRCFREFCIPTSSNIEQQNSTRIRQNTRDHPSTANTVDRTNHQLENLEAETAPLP

[3] = biological target: Kappa-type opioid receptor (Homo sapiens, UniProt P41145); assay: Agonist activity at human KOR expressed in CHOK1 cells assessed as inhibition of forskolin-stimulated cAMP accumulation incubated for 30 mins by luminescence assay; format: functional, cell-based, CHO-K1
Kappa-type opioid receptor, sequence (P41145 whole entry): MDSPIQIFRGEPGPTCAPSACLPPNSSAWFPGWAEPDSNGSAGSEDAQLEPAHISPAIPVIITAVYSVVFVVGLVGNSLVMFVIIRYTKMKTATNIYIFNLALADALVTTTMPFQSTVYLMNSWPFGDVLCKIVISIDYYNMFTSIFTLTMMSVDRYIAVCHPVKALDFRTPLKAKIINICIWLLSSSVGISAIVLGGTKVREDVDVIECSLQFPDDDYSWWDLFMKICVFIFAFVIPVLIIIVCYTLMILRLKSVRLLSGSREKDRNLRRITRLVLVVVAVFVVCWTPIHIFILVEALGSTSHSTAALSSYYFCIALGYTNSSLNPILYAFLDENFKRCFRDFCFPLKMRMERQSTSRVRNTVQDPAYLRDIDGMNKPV

[4] = biological target: T1, Mu-type opioid receptor; assay: Activity at human MOR expressed in CHOK1 cells co-expressing beta-arrestin2 EFC assessed as beta-arrestin2 EFC recruitment measured after 90 mins by PathHunter assay; format: ADME, cell-based, CHO-K1
[5] = biological target: T1, Mu-type opioid receptor; assay: Activity at human MOR expressed in U2OS cells co-expressing beta-arrestin2 EFC assessed as beta-arrestin2 EFC recruitment by Tango assay; format: ADME, cell-based
[6] = biological target: T1, Mu-type opioid receptor; assay: Agonist activity at human MOR expressed in CHOK1 cells assessed as induction of beta-arrestin recruitment measured after 90 mins by PathHunter assay relative to control; format: cell-based; settings: CHO-K1

Delta-type opioid receptor, sequence (P41143 whole entry): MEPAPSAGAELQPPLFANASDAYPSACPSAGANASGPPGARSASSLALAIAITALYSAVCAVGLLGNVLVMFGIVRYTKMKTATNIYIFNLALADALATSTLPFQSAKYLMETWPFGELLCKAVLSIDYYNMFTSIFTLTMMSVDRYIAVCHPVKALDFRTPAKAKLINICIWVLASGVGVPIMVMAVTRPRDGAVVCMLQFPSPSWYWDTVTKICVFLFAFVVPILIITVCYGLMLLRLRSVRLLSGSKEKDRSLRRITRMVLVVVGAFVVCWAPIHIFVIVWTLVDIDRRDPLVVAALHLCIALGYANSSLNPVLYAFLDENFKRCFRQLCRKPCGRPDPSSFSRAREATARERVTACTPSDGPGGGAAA

SMILES	EC50 [1]	EC50 [2]	EC50 [3]	EC50 [4]	EC50 [5]	Emax [6]
COC(=O)/C=C/[C@H]1[C@@H]2CCC[C@@]1(c1cccc(O)c1)CCN2CCc1ccccc1	143 nM	132 nM	> 10000 nM	> 25000 nM		
COC(=O)CC[C@@H]1[C@H]2CCC[C@]1(c1cccc(O)c1)CCN2CCc1ccccc1	> 10000 nM	31.3 nM	> 10000 nM	> 25000 nM	> 25000 nM	
OCCC[C@H]1[C@@H]2CCC[C@@]1(c1cccc(O)c1)CCN2CCc1ccccc1	80.9 nM		> 10000 nM	> 25000 nM	> 25000 nM	
CCOC(=O)CC[C@H]1[C@@H]2CCC[C@@]1(c1cccc(O)c1)CCN2CCc1ccccc1	49.1 nM	0.24 nM	35.3 nM	11.6 nM	> 25000 nM	
OC/C=C/[C@H]1[C@@H]2CCC[C@@]1(c1cccc(O)c1)CCN2CCc1ccccc1	> 10000 nM		> 10000 nM	> 25000 nM	> 25000 nM	
COC(=O)CC[C@@H]1[C@@H]2CCC[C@@]1(c1cccc(O)c1)CCN2CCc1ccccc1	> 10000 nM	854 nM	323 nM	> 25000 nM		
COC(=O)CC[C@H]1[C@@H]2CCC[C@@]1(c1cccc(O)c1)CCN2CCc1ccccc1	> 10000 nM	0.46 nM		1.72 nM	12.5 nM	
CCC[C@H]1[C@@H]2CCC[C@@]1(c1cccc(O)c1)CCN2CCc1ccccc1	> 10000 nM		> 10000 nM	> 25000 nM	> 25000 nM	
O=C(O)CC[C@H]1[C@@H]2CCC[C@@]1(c1cccc(O)c1)CCN2CCc1ccccc1	> 10000 nM	31.7 nM	> 10000 nM	> 25000 nM	> 25000 nM	
OCCC[C@@H]1[C@H]2CCC[C@]1(c1cccc(O)c1)CCN2CCc1ccccc1	> 10000 nM		> 10000 nM	> 25000 nM	> 25000 nM	
C[C@@H](Cc1ccsc1)NC(=O)NC[C@H](Cc1ccc(O)cc1)N(C)C						4.3%
Oc1cccc([C@@]23CCC[C@H]([C@H]2O)N(CCc2ccccc2)CC3)c1	2.6 nM	0.017 nM	323 nM	6.08 nM		

Reference: ChEMBL document CHEMBL4680063, “G-Protein biased opioid agonists: 3-hydroxy-N-phenethyl-5-phenylmorphans with three-carbon chain substituents at C9” (RSC Med Chem, 2020)
